According to patent publication US4578245A, “Multilayer analytical element” (Fuji Photo Film Co., Ltd., priority 1982, dated 1986):

Assay: Relative Sensitivity in Aqueous Solution System (color formation with H2O2, peroxidase and 1,7-dihydroxynaphthalene)
Conditions: relative steepness of calibration curve; reference (C1) = 1.0; pH 6.0; 37° C., 10 min; 515 nm
Description: The following color-forming composition solutions were prepared using, as coupler, 1,7-dihydroxynaphthalene and, as chromogen, the compounds (1), (6), (7), (18), (C1) and (C2), respectively.
1,7-Dihydroxynaphthalene: 50 μmol
Phosphate buffer: added to adjust to pH 6.0
The color-forming solution having the above composition (5 ml.) was incubated at 37° C. for 3 min., and subsequently 50 μl. of aqueous H2 O2 solution (four levels from 1 mmol to 6 mmol and blank, respectively) was dropped into the incubated color-forming solution. The solution was further incubated at 37° C. for 10 min., and immediately subjected to transmissive spectroscopy at the wavelength of 515 nm for measurement of optical density of the formed color. The relationships between the H2 O2 concentrations and the measured optical density values on the formed color (the value was calculated by subtracting an optical density of the color formed in the blank solution from an optical density of the color formed in the aqueous H2 O2 incorporated solution) were plotted on an orthgonal axes graph to determine the steepness of slope of the calibration curve. The relative sensitivity of each compound is set forth in Table 6 in terms of a relative steepness value based on the reference steepness obtained in the measurement on the solution using the compound (C1). In Table 6, the reference steepness is given as 1.0.

SMILES | Relative Sensitivity (aq. sol.)
Cc1c(N)c(=O)n(-c2cccc(Cl)c2)n1C [(1)] | 0.99
Cn1c(-c2ccccc2)c(N)c(=O)n1-c1ccccc1 [(18)] | 0.82
Cn1c(-c2ccccc2)c(N)c(=O)n1C [(C2), reference compound] | 0.77
Cc1c(N)c(=O)n(-c2c(Cl)cc(Cl)cc2Cl)n1C [Compound (6)] | 0.70
Cc1c(N)c(=O)n(-c2ccccc2)n1C [Compound (C1), 4-amino-2,3-dimethyl-1-phenyl-3-pyrazolin-5-one, reference compound] | 1.0
